Reference: US10726554B2, “Information processing apparatus, information processing system, and information processing method” (Sony Corporation, priority 2015, dated 2020)

Tests used:
Type in all cases: cell-based
U2OS cells [1] = assay: Change in motion speed by motor protein inhibitor (phase contrast imaging, average motion speed); conditions: imaging time 60 minutes
Procedure: Images (moving image) of U2OS cells cultured at different medicine concentrations were captured with a phase contrast microscope. […] For the AMP-PNP, three types of cells respectively having medicine concentrations of 67, 200, and 670 micro M and a comparative cell to which nothing is administered were prepared. For the ATA, three types of cells respectively having medicine concentrations of 10, 30, and 100 micro M and a comparative cell to which nothing is administered were prepared. The magnification power of the microscope was 20×, the imaging interval was 5 frames per second, and the imaging time was 60 minutes. After motion vectors were calculated at intervals of approximately 1 micrometer, an average of the motion amount per unit time (motion speed) was calculated, to create a graph.
FIG. 27 is a graph of a motion speed for the cells to which AMP-PNP is administered at different medicine concentrations. FIG. 28 is a graph of a motion speed for the cells to which ATA is administered at different medicine concentrations.

U2OS cells [2] = assay: Change in motion speed by metabolic inhibition with mitochondrial uncoupler (phase contrast imaging, relative motion area); conditions: U2OS cells, 0.5, 5 and 50 micro M, imaging time 20 minutes, versus comparative cell (FIG. 26)
Procedure: Images (moving image) of U2OS cells cultured at different medicine concentrations were captured with a phase contrast microscope. A medicine was CCCP, which is a mitochondrial uncoupler used as a metabolic inhibitor. Three types of cells respectively having medicine concentrations of 0.5, 5, and 50 micro M and a comparative cell to which nothing is administered were prepared. The magnification power of the microscope was 20×, the imaging interval was 5 frames per second, and the imaging time was 20 minutes. After motion vectors were calculated at intervals of approximately 1 micrometer, a relative motion area was calculated to create a graph.
FIG. 26 is a graph of a relative motion area for the cells cultured at different medicine concentrations.

U2OS cells [3] = assay: Change in motion speed by microtubule disruption (phase contrast imaging, motion vector analysis); conditions: 2 micro M, imaging time 20 minutes; for motion area in color map of motion speed: versus comparative cell (FIGS. 20, 22, 24); for relative motion area (proportion of the motion area to the cell area): versus comparative cell to which nothing is administered (FIG. 25)
Procedure: Images (moving image) of U2OS cells cultured on different conditions were captured with a phase contrast microscope. Three types of cells, i.e., a cell to which Paclitaxel of 2 micro M is administered, a cell to which Nocodazole of 2 micro M is administered, and a comparative cell to which nothing is administered, were prepared. The Paclitaxel stabilizes a microtubule. The Nocodazole destabilizes a microtubule. The magnification power of the microscope was 20×, the imaging interval was 5 frames per second, and the imaging time was 20 minutes. After motion vectors were calculated at intervals of approximately 1 micrometer, a spatiotemporal average of the motion amount per unit time (motion speed) of each coordinate was calculated, to create a color map. Further, on the basis of the proportion of the cell within the captured image, a cell area and a motion area indicating a motion speed larger than a predetermined motion speed were calculated, and a relative motion area indicating a proportion of the motion area to the cell area was specified, to create a graph.
FIG. 19 is a phase-contrast image of a comparative cell to which nothing is administered, and FIG. 20 is a color map of the comparative cell. FIG. 21 is a phase-contrast image of a cell to which Paclitaxel is administered, and FIG. 22 is a color map of the cell. FIG. 23 is a phase-contrast image of a cell to which Nocodazole is administered, and FIG. 24 is a color map of the cell. FIG. 25 is a graph of a relative motion area for the cells cultured on those three conditions.

SMILES | motion area in color map of motion speed (U2OS cells [3]) | relative motion area (proportion of the motion area to the cell area) (U2OS cells [3]) | further results
Nc1ncnc2c1ncn2[C@@H]1O[C@H](COP(=O)(O)OP(=O)(O)NP(=O)(O)O)[C@@H](O)[C@H]1O [AMP-PNP] | – | – | motion speed (average of the motion amount per unit time) (U2OS cells [1]; U2OS cells, 67, 200 and 670 micro M, versus comparative cell (FIG. 27)): the value of the motion speed decreases in accordance with an increase of the medicine concentration
O=C(O)C1=CC(=C(c2ccc(O)c(C(=O)O)c2)c2ccc(O)c(C(=O)O)c2)C=CC1=O [ATA] | – | – | motion speed (average of the motion amount per unit time) (U2OS cells [1]; U2OS cells, 10, 30 and 100 micro M, versus comparative cell (FIG. 28)): the value of the motion speed decreases in accordance with an increase of the medicine concentration
N#CC(C#N)=NNc1cccc(Cl)c1 [CCCP] | – | – | relative motion area (U2OS cells [2]): the value of the relative motion area decreases in accordance with an increase of the concentration of CCCP
COC(=O)Nc1nc2ccc(C(=O)c3cccs3)cc2[nH]1 [Nocodazole] | the motion area obviously shrinks in the color map | the value of the relative motion area decreases | –
CC(=O)O[C@H]1C(=O)[C@@]2(C)[C@H]([C@H](OC(=O)c3ccccc3)[C@]3(O)C[C@H](OC(=O)[C@H](O)[C@@H](NC(=O)c4ccccc4)c4ccccc4)C(C)=C1C3(C)C)[C@]1(OC(C)=O)CO[C@@H]1C[C@@H]2O [Paclitaxel] | do not have difference in color map | do not have difference in color map and in value of the relative motion area | –
